Assay results taken from the NIST ThermoML archive (doi:10.1021/je700350b).
Numbers after ± are expanded uncertainties.

How the values were obtained:
[1] = 101.33 kPa, Liquid, Vibrating tube method
[2] = xn = mol fraction of the nth substance listed; conditions: x2 = 0; for surface tension liquid-gas: Ring tensiometer; for viscosity: 101.33 kPa, Liquid

SMILES	mass density ([1]; 293.15 K) [kg/m3]	mass density ([1]; 298.15 K) [kg/m3]	surface tension liquid-gas ([2]; 283.15 K) [mN/m]	surface tension liquid-gas ([2]; 288.15 K) [mN/m]	surface tension liquid-gas ([2]; 293.15 K) [mN/m]	surface tension liquid-gas ([2]; 298.15 K) [mN/m]	viscosity ([2]; 298.15 K) [mPa·s]	surface tension liquid-gas ([2]; 303.15 K) [mN/m]	viscosity ([2]; 303.15 K) [mPa·s]
CCN(CC)CCO [(diethylamino)ethanol]	884.14 ± 0.3	879.5 ± 0.3							
O [water] + CCN(CC)CCO			73.74 ± 2.3	73.14 ± 2.2	72.59 ± 2.2	71.84 ± 2.2	0.89 ± 0.014	71.2 ± 0.98	0.794 ± 0.013
